Measurements as given in patent US12252491B2, “IL-17A inhibitors” (Eli Lilly and Company, priority 2019, dated 2025).

Assays:
[1] = target: binding of IL-17A to IL-17RA (Homo sapiens (Human), UniProt Q16552); assay: IL-17A:IL-17RA AlphaLISA
Experimental: The ability of compounds to inhibit the binding of IL-17A to IL-17RA may be assessed with an AlphaLISA assay.
To assay the compounds of the present invention, 0.1 μL of a test compound stock is serially diluted in 100% DMSO using an Echo Acoustic Liquid Handler (LabCyte Sunnydale, Calif.) in 384 well proxiplates (Perkin Elmer). A 5 μL addition of IL-17RA-FLAG is added to the plate, followed by the addition of 5 μL Avi-tagged IL-17A-His to provide a final concentration of 2 nM of IL-17RA and IL-17A, respectively. The assay is carried out in 20 mM HEPES, 150 mM NaCl, 0.05% Tween-20, 0.1% Human Serum Albumin, pH 7 and 1% DMSO. The assay mixture is allowed to incubate at room temperature for 2 hours. After the 2 hour incubation, 10 μL of streptavidin donor beads (20 μg/ml final) and anti-FLAG acceptor beads (20 μg/ml final) are added to the plate. The plate is allowed to incubate for one hour at room temp, then is read on the Envision (Perkin Elmer). The relative IC50 values are determined using a four parameter fit as shown in equation 1. In this equation, bottom and top are defined as the plateaus of the curve, and H is the Hill Slope.

human IL-17A = human IL-17A (Homo sapiens (Human), UniProt Q16552)
Experimental: The ability of compounds to neutralize the activity of IL-17A may be assessed with a cell-based human IL-17A neutralization assay conducted essentially as follows. […] After 48 hours, CXCL1/GROα in the culture media is measured using a commercial ELISA kit (#DY275; R&D Systems). Medium alone treatments are included in every experiment to assess the basal levels of CXCL1/GROα. Percent inhibition is calculated using the following equation:

[2] = Mouse oral bioavailability; assay type: in vivo; conditions: whole blood (dried blood spot), male mice, IV bolus 1 mg/kg vs oral 3 mg/kg, 8-hour AUC, read-out: % F (mouse)
Experimental: Oral bioavailability (% F) for compounds of the invention may be determined in mice by determination of an 8-hour blood plasma AUC (nM*hr) following intravenous and oral administration performed essentially as follows. Male mice (n=3) are administered compound via intravenous (IV) bolus (1 mg/kg) or orally (3 mg/kg). For intravenous administration, a vehicle of 20% w/v capsitol in NaPO4 buffer (25 mM) adjusted to pH 2 in a volume of 5 mL/kg is used. For oral administration, a vehicle of HEC/P80/AF/PW (probe sonicated to afford a homogeneous suspension) in a volume of 10 mL/kg is used. Blood is sampled by saphenous bleeding using K2 EDTA as anticoagulant. Approximately 20 μL of blood (or enough for 1 spot) is collected via a capillary tube and transferred to a card as a dry blood spot. Cards are allowed to dry for at least 2 hours before shipping for analysis. Blood concentration of compounds for each mouse is measured by liquid chromatography/tandem mass spectrometry at time points of 0.08 (IV only), 0.25, 0.5, 0.75, 2, 4, and 8 hours. Oral bioavailability (% F) is determined via the following equation: [% F=(AUC/Dose)PO/(AUC/Dose)IV].

binding of IL-17A to IL-17RA, sequence (Q16552 other isoform, or with tags, fused parts or gaps): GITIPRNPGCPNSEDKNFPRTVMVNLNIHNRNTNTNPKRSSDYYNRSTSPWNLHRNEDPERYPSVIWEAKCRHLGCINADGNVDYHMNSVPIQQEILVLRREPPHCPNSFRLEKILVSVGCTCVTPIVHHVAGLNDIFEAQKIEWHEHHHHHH
human IL-17A, sequence (Q16552 20-155): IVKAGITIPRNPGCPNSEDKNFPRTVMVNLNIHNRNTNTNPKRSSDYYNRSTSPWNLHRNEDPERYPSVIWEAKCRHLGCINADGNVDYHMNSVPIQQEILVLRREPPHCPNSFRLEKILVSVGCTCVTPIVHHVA

IC50 [1] | IC50 (human IL-17A) | bioavailability [2] | SMILES
15.2 ± 2.5 nM | 53.3 ± 26.4 nM | 28% | CCc1nocc1C(=O)N[C@H](c1cn2ncc(CN3C[C@@H](C(F)(F)F)NC3=O)cc2n1)C1CCC(F)(F)CC1 [Example 2, N—[(S)-(4,4-Difluorocyclohexyl)-[7-[[(4S)-2-oxo-4-(trifluoromethyl)imidazolidin-1-yl]methyl]imidazo[1,2-b]pyridazin-2-yl]methyl]-3-ethyl-isoxazole-4-carboxamide]
20 nM | 104 nM | 49% | CC(F)(F)c1nocc1C(=O)N[C@H](c1cn2ncc(CN3C[C@@H](C(F)(F)F)NC3=O)cc2n1)C1CCC(F)(F)CC1 [Example 5, N—[(S)-(4,4-Difluorocyclohexyl)-[7-[[(4S)-2-oxo-4-(trifluoromethyl)imidazolidin-1-yl]methyl]imidazo[1,2-b]pyridazin-2-yl]methyl]-3-(1,1-difluoroethyl)isoxazole-4-carboxamide]
< 9.45 nM | 94.2 nM | 75% | Cc1nonc1C(=O)N[C@H](c1cn2ncc(CN3C[C@@H](C(F)(F)F)NC3=O)cc2n1)C1CCC(F)(F)CC1 [Example 6, N—[(S)-(4,4-Difluorocyclohexyl)-[7-[[(4S)-2-oxo-4-(trifluoromethyl)imidazolidin-1-yl]methyl]imidazo[1,2-b]pyridazin-2-yl]methyl]-4-methyl-1,2,5-oxadiazole-3-carboxamide]
37.8 nM | 128 nM | 47% | O=C(N[C@H](c1cn2ncc(CN3C[C@@H](C(F)(F)F)NC3=O)cc2n1)C1CCC(F)(F)CC1)c1conc1CF [Example 7, N—[(S)-(4,4-Difluorocyclohexyl)-[7-[[(4S)-2-oxo-4-(trifluoromethyl)imidazolidin-1-yl]methyl]imidazo[1,2-b]pyridazin-2-yl]methyl]-3-(fluoromethyl)isoxazole-4-carboxamide]
51.9 nM | 82.9 nM |  | CC(C)(F)c1nocc1C(=O)N[C@H](c1cn2ncc(CN3C[C@@H](C(F)(F)F)NC3=O)cc2n1)C1CCC(F)(F)CC1 [Example 15, N—[(S)-(4,4-Difluorocyclohexyl)-[7-[[(4S)-2-oxo-4-(trifluoromethyl)imidazolidin-1-yl]methyl]imidazo[1,2-b]pyridazin-2-yl]methyl]-3-(1-fluoro-1-methyl-ethyl)isoxazole-4-carboxamide]
< 9.45 nM | 15.9 nM |  | CCc1nonc1C(=O)N[C@H](c1cn2ncc(CN3C[C@@H](C(F)(F)F)NC3=O)cc2n1)C1CCC(F)(F)CC1 [Example 17, N—[(S)-(4,4-Difluorocyclohexyl)-[7-[[(4S)-2-oxo-4-(trifluoromethyl)imidazolidin-1-yl]methyl]imidazo[1,2-b]pyridazin-2-yl]methyl]-4-ethyl-1,2,5-oxadiazole-3-carboxamide]
< 9.45 nM | 22.7 nM |  | O=C(N[C@H](c1cn2ncc(CN3C[C@@H](C(F)(F)F)NC3=O)cc2n1)C1CCC(F)(F)CC1)c1nonc1C(F)F [Example 18, N—[(S)-(4,4-Difluorocyclohexyl)-[7-[[(4S)-2-oxo-4-(trifluoromethyl)imidazolidin-1-yl]methyl]imidazo[1,2-b]pyridazin-2-yl]methyl]-4-(difluoromethyl)-1,2,5-oxadiazole-3-carboxamide]
 |  | 47% | O=C(N[C@H](c1cn2ncc(CN3C[C@@H](C(F)(F)F)NC3=O)cc2n1)C1CCC(F)(F)CC1)c1nonc1C1CC1 [Example 19, 4-Cyclopropyl-N—[(S)-(4,4-difluorocyclohexyl)-[7-[[(4S)-2-oxo-4-(trifluoromethyl)imidazolidin-1-yl]methyl]imidazo[1,2-b]pyridazin-2-yl]methyl]-1,2,5-oxadiazole-3-carboxamide]
11.4 nM | 83.4 nM |  | COc1nonc1C(=O)N[C@H](c1cn2ncc(CN3C[C@@H](C(F)(F)F)NC3=O)cc2n1)C1CCC(F)(F)CC1 [Example 22, N—[(S)-(4,4-Difluorocyclohexyl)-[7-[[(4S)-2-oxo-4-(trifluoromethyl)imidazolidin-1-yl]methyl]imidazo[1,2-b]pyridazin-2-yl]methyl]-4-methoxy-1,2,5-oxadiazole-3-carboxamide]
< 9.45 nM | 14.9 nM |  | O=C(N[C@H](c1cn2ncc(CN3C[C@@H](C(F)(F)F)NC3=O)cc2n1)C1CCC(F)(F)CC1)c1nonc1CC(F)(F)F [Example 23, N—[(S)-(4,4-difluorocyclohexyl)-[7-[[(4S)-2-oxo-4-(trifluoromethyl)imidazolidin-1-yl]methyl]imidazo[1,2-b]pyridazin-2-yl]methyl]-4-(2,2,2-trifluoroethyl)-1,2,5-oxadiazole-3-carboxamide]

More lines, now with the values behind:

SMILES | IC50 [1] | IC50 (human IL-17A) | bioavailability [2]
O=C(N[C@H](c1cn2ncc(CN3C[C@@H](C(F)(F)F)NC3=O)cc2n1)C1CCC(F)(F)CC1)c1conc1C1CC1 [Example 1, 3-Cyclopropyl-N—[(S)-(4,4-difluorocyclohexyl)-[7-[[(4S)-2-oxo-4-(trifluoromethyl)imidazolidin-1-yl]methyl]imidazo[1,2-b]pyridazin-2-yl]methyl]isoxazole-4-carboxamide] | 15.7 ± 7 nM | 51.6 ± 23.5 nM | 34%
Cc1nocc1C(=O)N[C@H](c1cn2ncc(CN3C[C@@H](C(F)(F)F)NC3=O)cc2n1)C1CCC(F)(F)CC1 [Example 3, N—[(S)-(4,4-Difluorocyclohexyl)-[7-[[(4S)-2-oxo-4-(trifluoromethyl)imidazolidin-1-yl]methyl]imidazo[1,2-b]pyridazin-2-yl]methyl]-3-methyl-isoxazole-4-carboxamide] | 27.7 ± 2.4 nM | 127 nM | 35%
O=C(N[C@H](c1cn2ncc(CN3C[C@@H](C(F)(F)F)NC3=O)cc2n1)C1CCC(F)(F)CC1)c1conc1C(F)F [Example 4, N—[(S)-(4,4-Difluorocyclohexyl)-[7-[[(4S)-2-oxo-4-(trifluoromethyl)imidazolidin-1-yl]methyl]imidazo[1,2-b]pyridazin-2-yl]methyl]-3-(difluoromethyl)isoxazole-4-carboxamide] | 13 ± 2 nM | 93.7 nM | 59%
O=C(N[C@H](c1cn2ncc(CN3C[C@@H](C(F)(F)F)NC3=O)cc2n1)C1CCC(F)(F)CC1)c1conc1CC(F)F [Example 8, N—[(S)-(4,4-Difluorocyclohexyl)-[7-[[(4S)-2-oxo-4-(trifluoromethyl)imidazolidin-1-yl]methyl]imidazo[1,2-b]pyridazin-2-yl]methyl]-3-(2,2-difluoroethyl)isoxazole-4-carboxamide] | 15.5 nM | 52.4 nM | 
O=C(N[C@H](c1cn2ncc(CN3C[C@@H](C(F)(F)F)NC3=O)cc2n1)C1CCC(F)(F)CC1)c1conc1C1CC(F)(F)C1 [Example 10, 3-(3,3-Difluorocyclobutyl)-N—[(S)-(4,4-difluorocyclohexyl)-[7-[[(4S)-2-oxo-4-(trifluoromethyl)imidazolidin-1-yl]methyl]imidazo[1,2-b]pyridazin-2-yl]methyl]isoxazole-4-carboxamide] | 47 nM | 48.9 nM | 
O=C(N[C@H](c1cn2ncc(CN3C[C@@H](C(F)(F)F)NC3=O)cc2n1)C1CCC(F)(F)CC1)c1conc1C1(F)CC1 [Example 12, N—[(S)-(4,4-Difluorocyclohexyl)-[7-[[(4S)-2-oxo-4-(trifluoromethyl)imidazolidin-1-yl]methyl]imidazo[1,2-b]pyridazin-2-yl]methyl]-3-(1-fluorocyclopropyl)isoxazole-4-carboxamide] | 18.1 nM | 107 nM | 
O=C(N[C@H](c1cn2ncc(CN3C[C@@H](C(F)(F)F)NC3=O)cc2n1)C1CCC(F)(F)CC1)c1conc1C(F)(F)C1CC1 [Example 13, 3-[Cyclopropyl(difluoro)methyl]-N—[(S)-(4,4-difluorocyclohexyl)-[7-[[(4S)-2-oxo-4-(trifluoromethyl)imidazolidin-1-yl]methyl]imidazo[1,2-b]pyridazin-2-yl]methyl]isoxazole-4-carboxamide] | 47.1 nM | 53.1 nM | 
CC1(c2nocc2C(=O)N[C@H](c2cn3ncc(CN4C[C@@H](C(F)(F)F)NC4=O)cc3n2)C2CCC(F)(F)CC2)CC1 [Example 14, N—[(S)-(4,4-Difluorocyclohexyl)-[7-[[(4S)-2-oxo-4-(trifluoromethyl)imidazolidin-1-yl]methyl]imidazo[1,2-b]pyridazin-2-yl]methyl]-3-(1-methylcyclopropyl)isoxazole-4-carboxamide] | 36.1 nM | 33.3 nM | 
CC(C)c1nocc1C(=O)N[C@H](c1cn2ncc(CN3C[C@@H](C(F)(F)F)NC3=O)cc2n1)C1CCC(F)(F)CC1 [Example 16, N—[(S)-(4,4-Difluorocyclohexyl)-[7-[[(4S)-2-oxo-4-(trifluoromethyl)imidazolidin-1-yl]methyl]imidazo[1,2-b]pyridazin-2-yl]methyl]-3-isopropyl-isoxazole-4-carboxamide] | 19.3 nM | 10.8 nM | 
